According to patent US6395738B1, “Benzofuran derivatives” (Kyowa Hakko Kogyo Co., Ltd., priority 1997, dated 2002):
Converted amounts (≈) assume the structure as drawn. Read-outs that look alike come from different tables or passages of the source.

Tests used:
Water solubility = assay type: physicochemical
Experimental: Further, Compound (I) has an amide structure containing a piperazine ring at the 2-position of the benzofuran skeleton and can be converted into a pharmaceutically acceptable acid addition salt. […] For example, Compound 1 upon conversion into monohydrochloride becomes dissolved in water at a ratio of 7.4 μg/ml.

TNF α = assay: Inhibitory activity on production of TNF α in mouse model with LPS-induced sepsis; assay type: in vivo, BALB/c male mice; settings: for Ratio of inhibition (%) of TNF α production: Dose (mg) 30, orally administered 90 minutes before LPS i.v., serum TNF α by ELISA 1 hour after LPS
Male Sunkus murinus = assay: Vomiting test on male Sunkus; assay type: in vivo; settings: Dose (mg) 10; intraperitoneal; observed for 1 hour
Experimental: Vomiting Test on Male Sunkus
Male Sunkus murinus weighing about 60 g, 5 to 15 animals/group, were used in the test According to the method of Matsuki et al. (Japan J. Pharmacol., 48, 303 (1988)), each Sunkus animal was isolated and left in a wire-netting cage (15 cm width×21 cm length×15 cm height). Each test compound was suspended in physiological saline containing 0.5% Tween 80 and then intraperitoneally (i.p.) administered into each animal in a dose of 10 μl/g. […] The results were expressed in the number of animals with vomiting/the number of tested animals in the group given the test compound.
Compounds P and Q were used as the comparative compounds.

[1] = biological target: T1, Recombinant Human PDE IV Enzyme (HSPDE4A) (Homo sapiens, UniProt P27815); assay: Inhibition test on recombinant human PDE IV enzyme; assay type: biochemical; settings: [3H]cAMP substrate
T1 construct: except that 223 amino acids have been deleted from the N-terminal thereof; made in house; host or cells: E. coli
Experimental: Inhibition Test on Recombinant Human PDE IV Enzyme
Human phosphodiesterase cDNA (HSPDE4A) was isolated from testicles. Its predicted amino acid sequence is identical with the sequence (HSPDE4A5) reported by Bolger, G. et al. (Mol. Cell. Biol., 6558 (1993)) except that 223 amino acids have been deleted from the N-terminal thereof. This recombinant protein was expressed by an E. coli expression plasmid and then purified. The PDE activity was measured in the following 2-step process according to the method of Kincaid, R. and Manganiello, V. [Method. Enzymol., 159, 457 (1988)]. The substrate used was [^3H]cAMP (final concentration: […]), and the reaction was performed in a standard mixture containing N,N-bis(2-hydroxyethyl)-2-aminoethanesulfonic acid (50 mmol/l, pH 7.2), MgCl2 (1 mmol/l) and soybean trypsin inhibitor (0.1 mg/ml). The reaction was initiated by adding the enzyme thereto, and the mixture was incubated at 30° C. for 10 to 30 minutes. The reaction was quenched by hydrochloric acid, and the formed 5′-AMP was completely decomposed with […]. This sample was subjected to chromatography on DEAE-Sephadex A-25, and the eluted [^3H]adenosine was counted with a scintillation counter. The test compound was added after dissolved (concentration: 1.7%) in DMSO.

[2] = concentration of test compound 10^−7 mol/L
[3] = concentration of test compound 10^−8 mol/L

T1 sequence (P27815 224-886 limits assumed): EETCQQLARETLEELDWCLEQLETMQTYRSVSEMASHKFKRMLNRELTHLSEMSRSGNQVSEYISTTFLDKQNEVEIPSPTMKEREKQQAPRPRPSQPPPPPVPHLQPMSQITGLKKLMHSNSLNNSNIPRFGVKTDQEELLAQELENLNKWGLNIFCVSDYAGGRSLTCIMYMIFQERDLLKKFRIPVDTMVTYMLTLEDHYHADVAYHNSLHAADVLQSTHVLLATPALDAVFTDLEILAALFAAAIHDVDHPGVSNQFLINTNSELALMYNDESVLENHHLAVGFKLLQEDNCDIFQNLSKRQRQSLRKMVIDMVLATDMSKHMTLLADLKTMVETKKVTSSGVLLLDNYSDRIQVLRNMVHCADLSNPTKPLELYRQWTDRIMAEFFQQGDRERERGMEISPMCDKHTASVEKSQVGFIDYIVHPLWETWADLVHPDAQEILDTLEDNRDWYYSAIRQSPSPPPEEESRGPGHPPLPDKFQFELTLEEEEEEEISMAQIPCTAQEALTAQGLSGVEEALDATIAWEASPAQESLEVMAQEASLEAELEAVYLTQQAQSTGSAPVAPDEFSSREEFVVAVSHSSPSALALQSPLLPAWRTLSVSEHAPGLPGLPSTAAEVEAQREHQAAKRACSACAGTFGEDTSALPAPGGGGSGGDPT

Row | Structure (SMILES) | solubility (Water solubility; Compound 1 upon conversion into monohydrochloride, read-out: dissolved in water (water solubility)) [µg/mL] | Ratio of inhibition (%) of TNF α production (TNF α) [%] | Number of animals with vomiting/Number of tested animals (Male Sunkus murinus) | melting point [°C] | Ratio of inhibition (%) [1, 2] [%] | Ratio of inhibition (%) [1, 3] [%] | solubility (Water solubility; read-out: water solubility) [µg/mL] | inhibitory activity on production of TNF α (in words) (TNF α; summary of Table 3)
1 | COc1ccc(C(=O)Nc2c(Cl)cncc2Cl)c2cc(C(=O)N3CCN(C)CC3)oc12 [Compound 1, 4-(3,5-Dichloro-4-pyridyl)carbamoyl-7-methoxy-2-(4-methyl-1-piperazinyl)carbonylbenzofuran] | 7.4 (≈ 16 µM) | 68 | 0/5 | 224 to 225 | 75 | 25 | – | –
2 | COc1ccc(C(=O)Nc2c(Cl)cncc2Cl)c2cc(C(=O)N3CCN(CCO)CC3)oc12 [Compound 2, 4-(3,5-Dichloro-4-pyridyl)carbamoyl-2-[4-(2-hydroxyethyl)-1-piperazinyl]carbonyl-7-methoxybenzofuran] | – | 65 | 0/5 | 164 to 165 | 72 | 22 | – | –
3 | COc1ccc(C(=O)Cc2c(Cl)cncc2Cl)c2cc(C(=O)N3CCN(C)CC3)oc12 [Compound 13, 4-[2-(3,5-Dichloro-4-pyridyl)-1-oxoethyl]-2-(4-methyl-1-piperazinyl)carbonyl-7-methoxybenzofuran] | – | 65 | 0/5 | 160 to 161 | – | – | – | –
4 | COc1ccc(C(=O)Cc2c(Cl)cncc2Cl)c2cc(C(=O)N3CCN(CCO)CC3)oc12 [Compound 14, 4-[2-(3,5-Dichloro-4-pyridyl)-1-oxoethyl]-2-[4-(2-hydroxyethyl)-1-piperazinyl]carbonyl-7-methoxybenzofuran] | – | 65 | 0/5 | 155 to 156 | – | – | – | –
5 | COc1ccc(C(=O)Nc2c(Cl)cncc2Cl)c2cc(C(=O)c3ccccc3)oc12 [Compound Q, 2-benzoyl-4-(3,5-dichloro-4-pyridyl)carbamoyl-7-methoxybenzofuran, reference compound] | – | 30 | 0/5 | – | – | – | ≤ 1 | high inhibitory activity
